# Experimental data taken from patent US20210299162A1, “MOLECULAR HYDROGEN-CONTAINING COMPOSITION FOR PREVENTION AND/OR IMPROVEMENT OF ENCEPHALITIS AND/OR MENINGITIS AND SYMPTOM ASSOCIATED WITH THE ENCEPHALITIS AND/OR MENINGITIS” (MiZ Company Limited, priority 2020, published 2021).
# Key:
# meningococcal meningitis = settings: person
# Method: The case patient is person. The patient presenting with pyrexia and disturbance of consciousness was admitted to hospital urgently. […] The patient initiated inhalation, which was performed for one to three hours per day for one month using a hydrogen gas generator “Jobs-α” (a hydrogen concentration, 4% to 6%; generation rate of hydrogen gas, 200 mL/min) manufactured by MiZ Company Limited.
# [1] = room temperature, normal pressure; also printed as 1.6 mg/L; cited from earlier work
SMILES,"symptoms (pyrexia, disturbance of consciousness) (meningococcal meningitis; administered for 17 days)",course after completion of the administration (meningococcal meningitis; after 17 days of administration),"clinical course (meningococcal meningitis; relapse after ceftriaxone, inhalation one to three hours per day for one month, hydrogen concentration 4% to 6%, 200 mL/min (Jobs-α))","brain MRI (ventriculitis) (meningococcal meningitis; after hydrogen inhalation one to three hours per day for one month, hydrogen concentration 4% to 6%)",concentration dissolved in water (solubility) [1]
"CO/N=C(\C(=O)N[C@@H]1C(=O)N2C(C(=O)O)=C(CSc3nc(=O)c(=O)[nH]n3C)CS[C@H]12)c1csc(N)n1 [Ceftriaxone, reference compound]",resolved symptoms,relapse,,,
"[HH] [hydrogen, molecular hydrogen]",,,began to improve,improvement of ventriculitis,approximately 1.6 ppm
